In US20070082952A1, “Pharmaceutical compositions, methods of preparation thereof, and methods of treatment” (priority 2005, published 2007):

Key:
aqueous solubility = type: physicochemical
Text: An obstacle to the use of 3-biphenyl-4-yl-(2S)-[(4′-trifluoromethyl-biphenyl-4-carbonyl)-amino]-propionic acid in certain pharmacological forms is its aqueous solubility (less than 0.5 micrograms/milliliter (μg/mL)), which may make the bioavailability of biphenyl-4-yl-(2S)-[(4′-trifluoromethyl-biphenyl-4-carbonyl)-amino]-propionic acid lower than desirable. A composition of the present invention, having an increased dissolution rate, advantageously enhances the bioavailability of 3-biphenyl-4-yl-(2S)-[(4′-trifluoromethyl-biphenyl-4-carbonyl)-amino]-propionic acid, particularly when dosed orally.

[1] = Dissolution, USP method 2 (paddles at 75 rpm, 0.025 M NaH2PO4 with 2% SDS, pH 6.8); type: physicochemical; settings: 2×100 mg, pH 6.8, paddles 75 rpm
Procedure: Dissolution of the wet granulation tablets of Example 1 and the dry formulation capsules of Example 2 was determined using USP method 2 (paddles at 75 rpm, 0.025 M NaH2PO4 with 2% sodium dodecyl sulfate (SDS), pH 6.8).

## O=C(N[C@@H](Cc1ccc(-c2ccccc2)cc1)C(=O)O)c1ccc(-c2ccc(C(F)(F)F)cc2)cc1 [3-biphenyl-4-yl-(2S)-[(4′-trifluoromethyl-biphenyl-4-carbonyl)-amino]-propionic acid]
Aqueous solubility
  aqueous solubility: less than 0.5 μg/mL
[1]; Time 0 min
  Percent 3-Biphenyl-4-yl-(2S)-[(4′-trifluoromethyl-biphenyl-4-carbonyl)-amino]-propionic acid Dissolved: 0%
[1]; Time 15 min
  Percent 3-Biphenyl-4-yl-(2S)-[(4′-trifluoromethyl-biphenyl-4-carbonyl)-amino]-propionic acid Dissolved: 43.2%
[1]; Time 30 min
  Percent 3-Biphenyl-4-yl-(2S)-[(4′-trifluoromethyl-biphenyl-4-carbonyl)-amino]-propionic acid Dissolved: 57.0%
[1]; Time 45 min
  Percent 3-Biphenyl-4-yl-(2S)-[(4′-trifluoromethyl-biphenyl-4-carbonyl)-amino]-propionic acid Dissolved: 67.3%
[1]; Time 60 min
  Percent 3-Biphenyl-4-yl-(2S)-[(4′-trifluoromethyl-biphenyl-4-carbonyl)-amino]-propionic acid Dissolved: 73.9%
